{"source": "patent US9809582B2", "about": "“Aminoester derivatives” (CHIESI FARMACEUTICI S.p.A., priority 2015, dated 2017)", "key": {"[1]": {"details": "cited from earlier work"}, "Human recombinant PDE4B2": {"target": "Human recombinant PDE4B2 (Homo sapiens (Human), UniProt Q07343)", "sequence (Q07343 other isoform, or with tags, fused parts or gaps)": "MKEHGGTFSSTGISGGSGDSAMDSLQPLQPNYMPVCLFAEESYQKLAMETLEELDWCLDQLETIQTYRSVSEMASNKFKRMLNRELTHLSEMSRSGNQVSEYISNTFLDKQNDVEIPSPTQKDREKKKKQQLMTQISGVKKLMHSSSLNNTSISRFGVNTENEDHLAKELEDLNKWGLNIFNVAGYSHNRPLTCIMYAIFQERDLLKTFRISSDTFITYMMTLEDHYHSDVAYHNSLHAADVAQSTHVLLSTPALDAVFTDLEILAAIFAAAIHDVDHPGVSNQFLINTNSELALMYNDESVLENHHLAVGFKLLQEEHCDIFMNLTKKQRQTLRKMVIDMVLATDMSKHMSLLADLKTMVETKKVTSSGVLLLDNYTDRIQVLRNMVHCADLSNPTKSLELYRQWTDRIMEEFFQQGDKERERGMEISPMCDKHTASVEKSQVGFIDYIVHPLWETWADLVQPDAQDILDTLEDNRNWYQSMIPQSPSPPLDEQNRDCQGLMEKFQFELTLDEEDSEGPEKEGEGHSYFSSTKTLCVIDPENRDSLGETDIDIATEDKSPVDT", "experiment": "PDE4B2 HTRF assay", "format": "biochemical", "procedure": "PDE4B2 activity is detected using the LANCE Ultra cAMP homogeneous time resolved fluorescence resonance energy transfer (TR-FRET) assay from Perkin Elmer. The assay is based on the competition between the europium (Eu) chelate-labeled cAMP tracer and sample cAMP for binding sites on cAMP-specific monoclonal antibodies (mAb) labelled with the ULight™ dye. The assay is carried out in 384-well low volume plates in a volume of 10 μl. Human recombinant PDE4B2 (80 pM) is incubated for 2 h with 3 nM cAMP in buffer containing 1×HBSS, 5 mM HEPES, 3 mM MgCl2, 0.1% BSA, pH 7.4 with or without test compounds. The enzymatic reactions are efficiently stopped by the addition of 500 μM IBMX present in the combined Stop/Detection buffer containing europium (Eu) chelate-labeled cAMP tracer and cAMP-specific monoclonal antibodies (mAb) labelled with the ULight™ dye. […] IC50 values are determined from competition curves using a non-linear curve fitting program."}, "Human M3 receptor": {"target": "Human M3 receptor (Homo sapiens (Human), UniProt P20309)", "sequence (P20309 whole entry)": "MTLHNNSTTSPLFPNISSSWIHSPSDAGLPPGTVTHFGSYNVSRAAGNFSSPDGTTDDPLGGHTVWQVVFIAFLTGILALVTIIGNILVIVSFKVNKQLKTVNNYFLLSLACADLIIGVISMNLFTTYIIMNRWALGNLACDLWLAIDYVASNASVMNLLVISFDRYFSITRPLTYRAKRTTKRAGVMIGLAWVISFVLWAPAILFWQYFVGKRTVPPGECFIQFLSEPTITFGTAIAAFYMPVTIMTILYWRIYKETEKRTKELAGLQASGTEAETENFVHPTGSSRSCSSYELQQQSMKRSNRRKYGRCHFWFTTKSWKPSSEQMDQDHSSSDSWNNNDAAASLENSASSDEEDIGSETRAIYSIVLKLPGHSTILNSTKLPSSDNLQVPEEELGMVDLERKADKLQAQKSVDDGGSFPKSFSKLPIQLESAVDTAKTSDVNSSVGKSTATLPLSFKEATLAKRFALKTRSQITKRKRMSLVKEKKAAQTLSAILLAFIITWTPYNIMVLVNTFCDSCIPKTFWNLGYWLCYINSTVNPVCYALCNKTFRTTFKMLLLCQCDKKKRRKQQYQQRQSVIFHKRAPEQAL", "experiment": "M3 receptor radioligand binding assay", "procedure": "M3 Receptor Radioligand Binding Assay:\nThe assay is carried out in 96-well polypropylene plates in a volume of 250 μl. […] The final assay concentration of DMSO is 0.5% (v/v). The plates are sealed and incubated for 2 h at room temperature on an orbital shaker (slow speed). Membranes are harvested onto 96-well unifilter GF/C filter plates pre-treated with 0.5% polyethyleneimine (v/v), using a filter manifold, washed four times with […] of assay buffer. The plates are dried before addition of 50 μl of microscint-0, sealed then read in a Trilux Microbeta scintillation counter. IC50 values are determined from competition curves using a non-linear curve fitting program. Ki values are calculated from IC50 values by the Cheng and Prusoff equation."}, "[2]": {"details": "patients with severe disease, frequent exacerbations and mucus hypersecretion"}, "[3]": {"details": "PDE4B2 HTRF assay, read-out: PDE4B2 IC50 Activity"}, "[4]": {"details": "M3 Receptor radioligand binding assay, read-out: M3 IC50 Activity"}}, "note": "Like-named read-outs stand apart in the source and are kept apart here."}
{"smiles": "O=C(Nc1c(Cl)cncc1Cl)c1ccc(OC(F)F)c(OCC2CC2)c1", "note": "[roflumilast]", "values": [{"measurement": "reduction of the numbers of neutrophils in sputum", "setting": "[1]; COPD patients, oral, given over four weeks", "result": 36, "unit": "%"}, {"measurement": "improvement of FEV 1", "setting": "[1]; [2]", "result": "approximately 50 mL"}, {"measurement": "reduction of exacerbation", "setting": "[1]; [2]", "result": "about 15%"}]}
{"smiles": "COc1ccc([C@H](Cc2c(Cl)c[n+]([O-])cc2Cl)OC(=O)c2ccc(CNC3CC(C(=O)OC4CCN(C)CC4)(c4ccccc4)C3)s2)cc1OC", "note": "(stereo partly drawn) [Example 32, [(1S)-2-(3,5-dichloro-1-oxido-pyridin-1-ium-4-yl)-1-(3,4-dimethoxyphenyl)ethyl] 5-[[[3-[(1-methyl-4-piperidyl)oxycarbonyl]-3-phenyl-cyclobutyl]amino]methyl]-thiophene-2-carboxylate]", "values": [{"measurement": "IC50", "setting": "Human recombinant PDE4B2; [3]", "result": "< 1", "unit": "nM"}, {"measurement": "IC50", "setting": "Human M3 receptor; [4]", "result": "10 to 100", "unit": "nM"}]}
{"smiles": "COc1ccc([C@H](Cc2c(Cl)c[n+]([O-])cc2Cl)OC(=O)c2ccc(CN3CCC(C(=O)O[C@H]4CN5CCC4CC5)(c4ccccc4)CC3)cc2)cc1OC", "note": "[Example 11, [(3R)-quinuclidin-3-yl]-1-[[4-[(1S)-2-(3,5-dichloro-1-oxido-pyridin-1-ium-4-yl)-1-(3,4-dimethoxyphenyl)ethoxy]-carbonylphenyl]methyl]-4-phenyl-piperidine-4-carboxylate]", "values": [{"measurement": "IC50", "setting": "Human recombinant PDE4B2", "result": "1 to 10", "unit": "nM"}, {"measurement": "IC50", "setting": "Human M3 receptor; M3 IC50 Activity", "result": "10 to 100", "unit": "nM"}]}
{"smiles": "COc1ccc([C@H](Cc2c(Cl)c[n+]([O-])cc2Cl)OC(=O)c2ccc(CN3CC(C(=O)O[C@@H]4CCN(C)C4)(c4ccccc4)C3)s2)cc1OC", "note": "[Example 16, [(3R)-1-methylpyrrolidin-3-yl] 1-[[5-[(1S)-2-(3,5-dichloro-1-oxido-pyridin-1-ium-4-yl)-1-(3,4-dimethoxyphenyl)ethoxy]carbonyl-2-thienyl]methyl]-3-phenyl-azetidine-3-carboxylate]", "values": [{"measurement": "IC50", "setting": "Human recombinant PDE4B2; [3]", "result": "1 to 10", "unit": "nM"}, {"measurement": "IC50", "setting": "Human M3 receptor; [4]", "result": "1 to 10", "unit": "nM"}]}
